# Laboratory results: patent US20230338378A1, “Methods of Administering Myosin Inhibitors” (MYOKARDIA, INC., priority 2022, published 2023)
# Legend:
# [1] = tested on: CYP2B6; assay: In vitro CYP induction; type: in vitro ADME; conditions: In Vitro Studies
# [2] = tested on: adults with symptomatic NYHA class II and III obstructive HCM; assay: EXPLORER-HCM Phase 3, double-blind, randomized, placebo-controlled trial; type: in vivo, human
# Description: The safety of MAVACAMTEN was evaluated in EXPLORER-HCM, a Phase 3, double-blind, randomized, placebo-controlled trial. Of the 251 adults with obstructive HCM, 123 patients were treated with MAVACAMTEN 2.5-15 mg daily and 128 were treated with placebo.
# The efficacy of MAVACAMTEN was evaluated in EXPLORER-HCM (NCT-03470545) a Phase 3, double-blind, randomized, placebo-controlled, multicenter, international, parallel-group trial in 251 adults with symptomatic NYHA class II and III obstructive HCM, LVEF≥55%, and Valsalva LVOT peak gradient ≥50 mmHg at rest or with provocation.
# Patients on dual therapy with beta blocker and calcium channel blocker treatment or monotherapy with disopyramide or ranolazine were excluded. Patients with a known infiltrative or storage disorder causing cardiac hypertrophy that mimicked obstructive HCM, such as Fabry disease, amyloidosis, or Noonan syndrome with left ventricular hypertrophy, were also excluded.
# Patients were randomized in a 1:1 ratio to receive either a starting dose of 5 mg of MAVACAMTEN or placebo once daily for 30 weeks. Treatment assignment was stratified by baseline NYHA functional class, baseline use of beta blockers, and type of ergometer (treadmill or exercise bicycle).
# All patients were initiated on MAVACAMTEN 5 mg (or matching placebo) once daily, and the dose was periodically adjusted to optimize patient response (decrease in LVOT gradient with Valsalva maneuver) and maintain LVEF≥50%. The dose was also informed by plasma concentrations of MAVACAMTEN.
# The primary composite functional endpoint, assessed at 30 weeks, was defined as the proportion of patients who achieved either improvement of […] (pVO2) by ≥1.5 mL/kg/min plus improvement in NYHA class by at least 1 or improvement of pVO2 by ≥3.0 mL/kg/min plus no worsening in NYHA class.
# The treatment effects of MAVACAMTEN on LVOT obstruction, functional capacity, and health status were assessed by change from baseline through Week 30 in post-exercise LVOT peak gradient, change in pVO2, proportion of patients with improvement in NYHA class, Kansas City Cardiomyopathy Questionnaire-23 (KCCQ-23) Clinical Summary Score (CSS), and Hypertrophic Cardiomyopathy Symptom Questionnaire (HCMSQ) Shortness of Breath (SoB) domain score.
# Missing data were not imputed to summarize the baseline and change from baseline to Week 30 values. Difference in mean change from baseline between treatment groups was estimated using a mixed model for repeated measures.
# [3] = Plasma protein binding; type: in vitro ADME
# [4] = target: CYP3A4 (Homo sapiens, UniProt P08684); assay: Concomitant use with moderate CYP3A4 inhibitor verapamil; type: in vivo; design: Mavacamten is hepatically metabolized predominantly via CYP2C19 (74%), CYP3A4 (18%) and CYP2C9 (8%); from tissue; host or cells: liver of human subjects in vivo, or a Simcyp virtual population; conditions: mavacamten 25 mg with verapamil sustained release 240 mg; CYP2C19 IMs and NMs
# Sequence of CYP3A4 (P08684 whole entry): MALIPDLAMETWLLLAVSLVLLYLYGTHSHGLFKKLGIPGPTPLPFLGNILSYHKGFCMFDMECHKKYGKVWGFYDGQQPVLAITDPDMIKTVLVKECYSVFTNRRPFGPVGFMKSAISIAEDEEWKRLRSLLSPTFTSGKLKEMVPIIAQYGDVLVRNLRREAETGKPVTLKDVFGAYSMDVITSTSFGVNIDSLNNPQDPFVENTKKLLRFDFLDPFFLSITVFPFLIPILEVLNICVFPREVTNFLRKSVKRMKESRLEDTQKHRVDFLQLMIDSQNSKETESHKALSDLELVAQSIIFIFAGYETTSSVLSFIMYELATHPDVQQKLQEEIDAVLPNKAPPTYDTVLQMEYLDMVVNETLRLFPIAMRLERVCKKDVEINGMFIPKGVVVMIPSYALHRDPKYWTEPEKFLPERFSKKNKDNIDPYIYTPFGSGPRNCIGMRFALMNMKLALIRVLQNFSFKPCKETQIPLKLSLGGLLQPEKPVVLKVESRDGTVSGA
# [5] = tested on: CYP2C19; assay: Pharmacogenomics: CYP2C19 poor vs normal metabolizers, single 15 mg dose; type: in vivo, human; conditions: for half-life: human, in vivo, 15 mg
# From the text: Mean half-life is prolonged in CYP2C19 PMs compared to NMs (23 days vs. 6 to 9 days, respectively).
# Polymorphic CYP2C19 is the main enzyme involved in the metabolism of MAVACAMTEN. An individual carrying two normal function alleles is a NM (e.g., *1/*1). An individual carrying two no function alleles is a PM (e.g., *2/*2, *2/*3, *3/*3).
# [6] = target: MATE2-K (Homo sapiens, UniProt Q86VL8); assay: In vitro transporter inhibition; type: in vitro ADME; conditions: In Vitro Studies
# Sequence of MATE2-K (Q86VL8 1-566 isoform Q86VL8-3): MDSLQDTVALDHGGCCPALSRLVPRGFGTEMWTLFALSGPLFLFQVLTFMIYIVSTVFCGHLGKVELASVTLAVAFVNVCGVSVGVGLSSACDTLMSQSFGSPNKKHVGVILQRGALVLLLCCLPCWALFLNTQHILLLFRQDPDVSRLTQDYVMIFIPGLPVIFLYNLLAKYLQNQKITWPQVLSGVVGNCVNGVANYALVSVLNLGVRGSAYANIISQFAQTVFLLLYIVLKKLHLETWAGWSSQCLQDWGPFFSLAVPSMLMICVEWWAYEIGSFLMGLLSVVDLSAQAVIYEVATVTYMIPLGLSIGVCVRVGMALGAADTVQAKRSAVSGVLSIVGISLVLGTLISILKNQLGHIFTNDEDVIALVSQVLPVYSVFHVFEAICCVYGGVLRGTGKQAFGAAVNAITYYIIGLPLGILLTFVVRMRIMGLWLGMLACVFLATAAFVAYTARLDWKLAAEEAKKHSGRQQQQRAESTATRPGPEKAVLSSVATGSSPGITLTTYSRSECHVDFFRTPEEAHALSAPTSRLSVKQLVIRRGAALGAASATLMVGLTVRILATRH
# [7] = tested on: rat; assay: Rat in vivo micronucleus assay
# [8] = tested on: HCM patients; assay: Meta-analysis of QTc across clinical studies in HCM patients; type: in vivo, human; conditions: therapeutic exposure range
# From the text: The effect of coadministration of MAVACAMTEN with QT-prolonging drugs or in patients with potassium channel variants resulting in a long QT interval have not been characterized.
# [9] = target: CYP2C19 (Homo sapiens, UniProt P33261); assay: Metabolism through CYP enzymes
# Sequence of CYP2C19 (Homo sapiens, UniProt P33261) (P33261 whole entry): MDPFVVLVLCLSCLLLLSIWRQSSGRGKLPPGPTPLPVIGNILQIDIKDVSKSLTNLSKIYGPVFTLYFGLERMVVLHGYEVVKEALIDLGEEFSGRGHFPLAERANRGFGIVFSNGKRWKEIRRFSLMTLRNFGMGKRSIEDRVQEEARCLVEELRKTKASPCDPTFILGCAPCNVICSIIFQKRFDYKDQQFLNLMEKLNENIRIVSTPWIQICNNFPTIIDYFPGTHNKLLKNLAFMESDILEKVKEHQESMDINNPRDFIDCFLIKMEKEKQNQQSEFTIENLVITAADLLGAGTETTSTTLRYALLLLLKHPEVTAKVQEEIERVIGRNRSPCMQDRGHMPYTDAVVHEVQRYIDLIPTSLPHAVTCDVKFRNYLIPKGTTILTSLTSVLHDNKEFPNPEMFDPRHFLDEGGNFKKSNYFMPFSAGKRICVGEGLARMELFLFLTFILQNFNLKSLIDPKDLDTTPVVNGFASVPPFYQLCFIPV
# [10] = Pharmacokinetics in hepatic impairment; type: in vivo, human; conditions: mild (Child-Pugh A) or moderate (Child-Pugh B) hepatic impairment vs normal hepatic function
# [11] = tested on: pregnant rats; assay: Pre/postnatal development study in rats; type: in vivo, rat
# Description: In a pre/postnatal development study, mavacamten was administered orally to pregnant rats (0.3, to 1.5 mg/kg/day) from gestation Day 6 to lactation/post-partum Day 20.
# [12] = tested on: bacterial reverse mutation; assay: Bacterial reverse mutation test (Ames test); type: cell-based
# [13] = target: CYP2C8 (Homo sapiens, UniProt P10632); assay: In vitro CYP inhibition; type: in vitro ADME; conditions: In Vitro Studies
# Sequence of CYP2C8 (P10632 whole entry): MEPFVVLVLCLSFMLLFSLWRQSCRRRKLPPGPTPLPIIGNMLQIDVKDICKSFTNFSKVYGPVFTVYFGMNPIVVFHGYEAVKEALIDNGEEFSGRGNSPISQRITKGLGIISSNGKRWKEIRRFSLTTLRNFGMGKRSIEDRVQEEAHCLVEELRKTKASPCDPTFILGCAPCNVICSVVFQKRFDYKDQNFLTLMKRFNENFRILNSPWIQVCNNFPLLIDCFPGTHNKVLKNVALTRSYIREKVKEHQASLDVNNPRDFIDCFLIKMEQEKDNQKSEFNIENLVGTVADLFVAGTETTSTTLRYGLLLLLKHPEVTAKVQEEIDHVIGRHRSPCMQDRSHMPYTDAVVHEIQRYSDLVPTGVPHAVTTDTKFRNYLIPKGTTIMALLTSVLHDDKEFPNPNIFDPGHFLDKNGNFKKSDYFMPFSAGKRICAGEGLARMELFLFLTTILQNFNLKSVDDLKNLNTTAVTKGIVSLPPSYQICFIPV
# [14] = Baseline to Week 30, vs Placebo
# [15] = CYP2C19 PMs compared to NMs, single dose of 15 mg
smiles,measurement,setting,value
"CC(C)n1c(=O)cc(N[C@@H](C)c2ccccc2)[nH]c1=O [mavacamten, (S)-3-Isopropyl-6-((1-phenylethyl)amino)pyrimidine-2,4(1H,3H)-dione]",induction of CYP2B6,[1],inducer
same,Change from baseline pVO2 ≥1.5 mL/kg/min and decreased NYHA,"[2]; 30 Weeks, N = 123",41 (33%)
same,Change from baseline pVO2 ≥3 mL/kg/min and NYHA not increased,"[2]; 30 Weeks, N = 123",29 (23%)
same,Total responders (primary endpoint),"[2]; 30 Weeks, N = 123",45 (37%)
same,"Change from baseline pVO2 ≥1.5 mL/kg/min and decreased NYHA, Difference (95% CI)","[2]; 30 Weeks, vs Placebo","19% (9, 30)"
same,"Change from baseline pVO2 ≥3 mL/kg/min and NYHA not increased, Difference (95% CI)","[2]; 30 Weeks, vs Placebo","13% (3, 22)"
same,"Total responders, Difference (95% CI)","[2]; 30 Weeks, vs Placebo","19% (9, 30)"
same,Number (%) with NYHA Class improved ≥1,"[2]; Baseline to Week 30, N = 123",80 (65%)
same,"Post-Exercise LVOT gradient, mean (SD) change","[2]; Baseline to Week 30, N = 123",−47 (40) mmHg
same,"pVO2, mean (SD) change","[2]; Baseline to Week 30, N = 123",1.4 (3.1) mL/kg/min
same,"NYHA Class improved ≥1, Difference (95% CI)",[2]; [14],"34% (22%, 45%)"
same,"Post-Exercise LVOT gradient, Difference (95% CI)",[2]; [14],"−35 (−43, −28) mmHg"
same,"pVO2, Difference (95% CI)",[2]; [14],"1.4 (0.6, 2.1) mL/kg/min"
same,"Syncope leading to discontinuation, patients",[2]; EXPLORER-HCM,0.8%
same,patients in whom reductions in LVEF to <50% were asymptomatic,[2]; EXPLORER-HCM,3 of the 7
same,patients who temporarily interrupted their dose due to LVEF<50%,[2]; EXPLORER-HCM,Three
same,"patients with reversible reductions in LVEF to <50% while on treatment, n (%)",[2]; EXPLORER-HCM,7 (6%)
same,"Adverse reaction: dizziness, patients","[2]; EXPLORER-HCM, 2.5-15 mg daily",27%
same,"Adverse reaction: syncope, patients","[2]; EXPLORER-HCM, 2.5-15 mg daily",6%
same,mean (SD) change from baseline in Valsalva LVOT gradient,[2]; Week 30,−49 (34) mmHg
same,mean (SD) change from baseline in resting LVOT gradient,[2]; Week 30,−39 (29) mmHg
same,proportion of patients who met the primary endpoint,[2]; Week 30,37%
same,"secondary endpoints (post-exercise LVOT peak gradient, pVO2, NYHA class, KCCQ-23 CSS, HCMSQ SoB)",[2]; Week 30,greater improvement compared to the placebo group across all secondary endpoints
same,"HCMSQ SoB, Difference, LS Mean (95% CI)","[2]; Week 30, vs Placebo","−2 (−2, −1)"
same,"KCCQ-23 CSS, Difference, LS Mean (95% CI)","[2]; Week 30, vs Placebo","9 (5, 13)"
same,reduction in NT-proBNP greater than for placebo,[2]; Week 30 compared with baseline,80%
same,LVEF following interruption in patients with LVEF <50%,[2]; all 7 patients,LVEF recovered
same,Subgroup analysis of the primary composite functional endpoint,[2]; all subgroups analyzed (FIG. 17),consistently favored MAVACAMTEN across all subgroups analyzed
same,benefit in patients on background beta blocker therapy compared to those who were not,[2]; attenuated improvement in pVO2,smaller
same,"KCCQ-23 PL, Change from Baseline to Week 30, Mean (SD)",[2]; in vivo,15 (17)
same,"KCCQ-23 TSS, Change from Baseline to Week 30, Mean (SD)",[2]; in vivo,12 (15)
same,"KCCQ-23 CSS, Change from Baseline to Week 30, Mean (SD)",[2]; n = 99,14 (14)
same,"HCMSQ SoB, Change from Baseline to Week 30, Mean (SD)",[2]; n = 108,−3 (3)
same,mean (SD) absolute change from baseline in LVEF,[2]; over the 30-week treatment period,−4% (8)
same,fraction unbound,[3],0.02 to 0.03
same,mavacamten AUCinf increase,[4],15%
same,mavacamten Cmax increase,[4],52%
same,AUCinf increase,[5]; [15],241%
same,Cmax increase,[5]; [15],47%
same,half-life,[5]; CYP2C19 NMs,6 to 9 days
same,half-life,[5]; CYP2C19 PMs,23 days
same,inhibition of MATE2-K,[6],does not inhibit
same,genotoxicity,[7],not genotoxic
same,QTc interval,[8],does not suggest clinically relevant increases in the QTc interval
same,metabolized through CYP2C19,[9],74%
same,exposure (AUC) increase,[10],up to 220%
same,no-observed-adverse-effect level (NOAEL),"[11]; pre/postnatal development study, rats, highest dosage level tested",1.5 mg/kg/day
same,effects in dams or offspring,"[11]; pregnant rats, oral 0.3 to 1.5 mg/kg/day, gestation Day 6 to lactation/post-partum Day 20",No adverse effects were observed
same,genotoxicity,[12],not genotoxic
same,inhibition of CYP2C8,[13],does not inhibit
